According to PMC9228872, “Repositioning of Quinazolinedione-Based Compounds on Soluble Epoxide Hydrolase (sEH) through 3D Structure-Based Pharmacophore Model-Driven Investigation” (Molecules, 2022):

Tests used:
[1] = target: T1, soluble epoxide hydrolase (sEH) (Homo sapiens, UniProt P34913); assay: cell-free fluorescence assay with PHOME substrate, concentration-response; type: biochemical
T1 construct: gene EPHX2; human recombinant sEH; C-terminal hydrolase domain activity measured
T1 sequence (P34913 1-555): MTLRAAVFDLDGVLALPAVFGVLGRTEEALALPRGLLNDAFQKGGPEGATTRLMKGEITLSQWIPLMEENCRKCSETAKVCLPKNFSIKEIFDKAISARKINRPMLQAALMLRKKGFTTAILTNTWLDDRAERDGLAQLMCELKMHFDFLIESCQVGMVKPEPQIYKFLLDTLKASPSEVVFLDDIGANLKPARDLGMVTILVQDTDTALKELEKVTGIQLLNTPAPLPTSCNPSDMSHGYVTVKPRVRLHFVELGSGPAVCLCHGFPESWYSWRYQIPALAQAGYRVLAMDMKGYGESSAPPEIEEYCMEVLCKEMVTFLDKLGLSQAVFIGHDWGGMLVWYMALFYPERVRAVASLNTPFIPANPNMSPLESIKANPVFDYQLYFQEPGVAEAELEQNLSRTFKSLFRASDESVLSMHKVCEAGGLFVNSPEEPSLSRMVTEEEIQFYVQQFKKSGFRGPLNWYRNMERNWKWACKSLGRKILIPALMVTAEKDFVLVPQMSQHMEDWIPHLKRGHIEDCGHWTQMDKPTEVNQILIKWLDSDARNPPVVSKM

[2] = target: T1, soluble epoxide hydrolase (sEH); assay: cell-free fluorescence assay with PHOME substrate, single concentration […]; type: biochemical; conditions: read-out: sEH Residual Activity (%)

Row | Compound | IC50 [1] | remaining activity at 10 µM [2]
1 | O=C(CCCCCn1c(=O)[nH]c2ccccc2c1=O)Nc1ccc2c(c1)OCCO2 [compound 4, N-(2,3-dihydrobenzo[b][1,4]dioxin-6-yl)-6-(2,4-dioxo-1,2-dihydroquinazolin-3(4H)-yl)hexanamide] | 4.5 ± 1 µM | 
2 | O=C(CCCCCn1c(=O)[nH]c2ccccc2c1=O)Nc1ccc2ncsc2c1 [compound 8, N-(benzo[d]thiazol-6-yl)-6-(2,4-dioxo-1,2-dihydroquinazolin-3(4H)-yl)hexanamide] |  | 51.7 ± 3.3%
3 | O=C(CCCCn1c(=O)[nH]c2ccccc2c1=O)Nc1ccc2c(c1)OCCO2 [compound 3, N-(2,3-dihydrobenzo[b][1,4]dioxin-6-yl)-5-(2,4-dioxo-1,2dihydroquinazolin-3(4H)yl)pentanamide] | 8.8 ± 1.5 µM | 
4 | O=C(CCCCCCn1c(=O)[nH]c2ccccc2c1=O)Nc1cncc(Br)c1 [compound 6, N-(5-bromopyridin-3-yl)-7-(2,4-dioxo-1,2-dihydroquinazolin-3(4H)-yl)heptanamide] |  | 48.6 ± 3.8%
5 | O=C(CCCCCn1c(=O)[nH]c2ccccc2c1=O)Nc1ccc(I)nc1 [compound 7, 6-(2,4-dioxo-1,2-dihydroquinazolin-3(4H)-yl)-N-(6-iodopyridin-3-yl)hexanamide] |  | 67.2 ± 4.4%
